“Also recorded” adds a separate entry of the source.
Experiments:
SOD1-G93A TGN mice = test: Clinical assessment (gait/stride length, onset, end stage) of SOD1-G93A TGN mice treated from presymptomatic stage; type: in vivo, mouse; conditions: treatment from 7 weeks; for Mortality: age at death; for Onset of Motor Deficits: age at onset
Description: FIG. 6. Noscapine-MK801 combination delays onset of disease and death in SOD1-G93A TGN mice. The one and two-drug treatments were started at an early (i.e., presymptomatic) stage of disease (7 weeks). […] Mice received noscapine intraperitoneally and MK-801 in drinking water.
Female SOD-1 G93A TGN mice were obtained from Jackson laboratory (strain #2726). The controls were matched litter mates. Treatment groups were three per group. Noscapine was injected intraperitoneal in the thigh 3 times/week (0.2 mg/kg i.p.) and MK801 was administered continuously in drinking water (12 mg/kg/d). Gait analysis was done by the method of Wooley et al., Muscle Nerve 2005 32(1):43-50 and Carter et al. J. Neurosci., 19(8):3248-3257, hereby incorporated by reference in their entirety.
For clinical assessment endpoints scoring was selected as follows:
GROUP CLASSIFICATION: Presymptomatic
Clinical signs: Full mobility and no observable difference in behavior from age-matched controls (Gait or stride length analysis).
GROUP CLASSIFICATION: Onset
Clinical signs: Abnormal Gait or stride length analysis and hindlimb weakness: >40% reduction in stride length vs. age-matched littermates.
GROUP CLASSIFICATION: End Stage (euthanization)
Clinical signs: noticeable and complete hind limb paralysis (which in this strain occurs more on one limb than the other) and inability to right themselves in 5 sec time window. This stage starts usually as the mice are failing the gait analysis test and enter the End stage. Therefore, Transgenic SOD1-G93A TGN mice are euthanized at the onset of noticeable and complete hindlimb paralysis and inability to right themselves in 5 sec time window.

[1] = tested on: MT-mediated fast axonal transport; test: MT-mediated fast axonal transport of 2H-label neuregulin-1 and chromogranin-B synaptic vesicle cargo (CSF secretion, spinal cord retention); type: in vivo, mouse; conditions: 13 weeks SOD1 G93A mice; 3 weeks treatment, 100 mg/kg/d and 200 mg/kg/d
Description: After 3 weeks of treatment with MTMA noscapine (100 mg/kg/d and 200 mg/kg/d) an intraperitoneal pulse dose of 30-35 ml/kg ^2H2O CSF was given and CSF as well as spinal cord lumbar region were collected from 13 weeks wild type (WT) and symptomatic SOD1 G93A mice at 24, 48 and 72 h, respectively. CSF secretion rates and neuronal kinetic of retention of ^2H-label neuregulin-1 [NeuR-1] or ^2H-label chromogranin-B [Chr-B] containing synaptic vesicles were measured as described above (FIGS. 23 and 24). […] Neuroprotective actions of agents are evaluated by comparing their ability to normalize the time course, extent or pattern of appearance of labeled secreted synaptic vesicle “cargo” molecules in the body fluid or tissue sampled
As detailed in FIG. 25 (A) transgenic SOD G93A mice (representing an animal model of ALS), are given heavy water (^2H2O), to label secreted molecules in motor neurons (n=30 mice total). […] Protein-derived amino acids were derivatized to pentafluorobenzyl derivatives, and ^2H incorporation in alanine released from neuregulin-1 were measured by GC/MS. […] Protein-derived amino acids are derivatized to pentafluorobenzyl derivatives, and ^2H incorporation from ^2H2O into derivatized-alanine is measured by GC/MS, as described in detail elsewhere [Fanara, P. et al. In vivo measurement of microtubule dynamics using stable isotope labeling with heavy water. […]

[2] = in vivo; cited from earlier work

## C[C@]12N[C@H](Cc3ccccc31)c1ccccc12 [MK-801, Dizocilipine]
SOD1-G93A TGN mice
  Mortality: 112 to 119 days
  Onset of Motor Deficits: 105 to 112 days

## COc1ccc2c(c1OC)C(=O)O[C@@H]2[C@H]1c2c(cc3c(c2OC)OCO3)CCN1C [Noscapine, noscapine]
SOD1-G93A TGN mice
  Mortality: 112 to 119 days
  Onset of Motor Deficits: 98 to 105 days
[1]
  fast axonal transport of 2H-label neuregulin-1 and chromogranin-B containing synaptic vesicles: normalized MT-mediated fast axonal transport rates; also recorded: improves this delayed fast axonal transport
[2]
  blood brain barrier penetration: penetrates the blood brain barrier
  half-life in CNS tissue (brain and spinal cord) and PNS: long half-life
